According to patent US20140096445A1, “METHOD OF CULTIVATION IN WATER DEFICIT CONDITIONS” (SYNGENTA PARTICIPATIONS AG, priority 2011, published 2014):
Marks after values point to notes of the source that are not given here.

Columns and labels:
Format in all cases: in vivo
corn [1] = experiment: Greenhouse sub-surface chemigation, yield and root architecture under deficit water, Examples 20-23; conditions: for Yield (% difference from UTC) / Relative number of fine roots (% difference from UTC): sub-surface chemigation at V3/V4, maximum labeled rates, 50% plant-available water; for Relative number of fine roots (% difference from UTC): within 2 weeks of harvest
Source text: (§1) In this experiment, standardized growth conditions were applied across all corn treatments including: soil-water availability, soil texture and composition, soil chemical and physical properties, meteorological and environmental parameters, and plant nutrition in a greenhouse. No indication of plant disease or pest damage was observed over the course of the study and no pest management program was necessary. A homogeneous sand-organic matter soil mixture (0.18% organic matter) was used as the growth medium in 55-gal containers. These containers were used as a weighing lysimeter, where daily changes in system weight were used to calculate plant transpiration. Four corn plants were grown in each 55-gal container. Three 55-gal containers (12 plants total) made up each treatment. All irrigation and chemical treatments were applied via sub-surface irrigation. Chemical treatments consisted of: azoxystrobin (Quadris), paclobutrazol (Trimmit), trinexapac-ethyl (Moddus), and propiconazole (Tilt) at maximum labeled rates.
(§2) Corn plants were grown from seed and transplanted in the 55-gal drums approximately 14 days after planting. Uniform adequate irrigation was applied up to growth stage V3/V4 to ensure plant establishment. Chemical treatment applications were applied at growth stage V3/V4 via sub-surface chemigation. At stage V3/V4, irrigation was decreased to replicate deficit water conditions across all treatments for the remainder of the study period. Irrigation was managed daily to maintain 50% plant-available water. Visual signs of abiotic plant stress were observed approximately 30 days after chemical application. All corn plants were grown to yield and cobs were harvested when kernels were uniformly dry (15% moisture content). Root architecture, specifically relative number of fine roots, was measured at within 2 weeks of harvest using a digital imaging technique. Fine roots are related to water uptake productivity, which is directly tied to the ability of the plant to access soil-water under stress.

corn [2] = experiment: Greenhouse subsurface drip irrigation trial, deficit irrigated, Examples 4-8; conditions: for % Yield Increase by Product over Untr./50% Irr. / Yield: SDI chemigated at V3/V4, 50% irrigated deficit, Azoxystrobin 261, PPZ 126, TXP 250, PBZ 12.5, TMX 70 gai/ha; for Yield compared with the control, in words: water stress regime (50% irrigated), SDI
Description: as §1, with “A greenhouse subsurface drip irrigation trial was conducted on corn to evaluate treatment effects on yield in fully irrigated vs. deficit irrigated conditions. In” for “In”
as §2

soybean [3] = experiment: Sprinkler irrigation field study on soybean yield and WUE, Table 14 (treatments 31-32)
soybean [4] = experiment: Lateral-move sprinkler irrigation field study on soybean, Examples 29-30; conditions: soybean, sprinkler irrigation
soybean [5] = experiment: Sprinkler irrigation field study on soybean yield, deficit vs fully irrigated, Examples 27-28
Source text: Testing Procedure: The overall objective was to conduct an irrigation management test to study the effects of fungicides and crop enhancement products on yield, WUE, and disease control under full irrigation and deficit irrigation conditions. This was a sprinkler irrigation field study conducted on a deep silt loam soil. The test was set up to specifically quantify the impact of azoxystrobin and acibenzolar-S-methyl on soybean yield and water productivity of soybean under limited (deficit) and fully-irrigated settings. The study utilized a sprinkler irrigation system. The study was replicated three times in an […]. Irrigation control panels, chemical injection pumps, and filters were housed at the irrigation well house to manage irrigation and chemigation events.
Soil water status was monitored throughout the growing season using soil moisture sensors. Soybean variety NK S31-L7 was planted on May 11, 2011 at the rate of 150,000 seed per acre. Testing parameters, and irrigation levels were conducted according to the University of Nebraska experimental procedure [see e.g., (1) Irmak, et. al.] Moisture levels, irrigation levels, evapotranspiration, and plant health were measured throughout the growing season. Climatic variables were measured (air temperature, rainfall, solar and net radiation, relative humidity, rainfall, wind speed and direction) throughout the season. Irrigation for the fully irrigated treatments was scheduled according to need by a climatic water budget using calculated evapotranspiration as a withdrawal and with rainfall and irrigation as deposits. […] Volumetric soil water content was measured in one-foot increments to a depth of 8 ft on an approximately weekly basis throughout the crop season to determine total water use. Crop water use was calculated as the sum of irrigation, precipitation and changes in soil water between the initial and final soil water sampling dates. Water productivity (WUE) was calculated as the crop yield divided by the seasonal water use (Water Productivity (WP)=Yield/ETc). […]

[6] = 60% irrigated deficit, Acibenzolar-S-methyl 10 gai/ha, Azoxy foliar 150 gai/ha + Acibenzolar-S-methyl 10 gai/ha

Row | SMILES | Yield (% difference from UTC) (corn [1]) | Relative number of fine roots (% difference from UTC) (corn [1]) | Yield compared with the control, statistical statement (corn [1]; sub-surface chemigation, abiotic stress, P values <0.001 at the 95th percentile confidence interval) | % Yield Increase by Product over Untr./50% Irr. (corn [2]) | Yield (corn [2]) | Yield compared with the control, in words (corn [2]) | Yield compared with the untreated, in words (soybean [3]; Azoxystrobin: foliar (2 applications) at 60% & 100% irrigated) | WUE differences, in words (soybean [3]; water deficit regime) | Water productivity, in words (soybean [4]) | Yield, statistical statement (soybean [5]; 60% Irrigation (deficit)) | % Yield Increase over Untr./60% irr. (soybean [5]; [6]) | Yield (soybean [5]; [6]) [Bu./acre]
1 | CC(C)(C)[C@@H](O)[C@@H](Cc1ccc(Cl)cc1)n1cncn1 (racemic) [PBZ, paclobutrazol] | 16.6† % | 70.0† % | statistically different from the control | +16.6% Incr. over Untr./50% Irr. | 2152† Kg/Ha | statistically higher than the control | – | – | – | – | – | –
2 | CCCC1COC(Cn2cncn2)(c2ccc(Cl)cc2Cl)O1 (stereo not shown) [PPZ, propiconazole] | 3.3% | 39.4† % | – | +3.3% Incr. over Untr./50% Irr. | 1906 Kg/Ha | statistically higher than the control | – | – | – | – | – | –
3 | CN1COCN(Cc2cnc(Cl)s2)/C1=N\[N+](=O)[O-] [TMX, thiamethoxam] | – | – | – | +4% Incr. over Untr./50% Irr. | 1916 Kg/Ha | – | – | – | – | – | – | –
4 | CSC(=O)c1cccc2nnsc12 [Acibenzolar-S-methyl, acibenzolar-S-methyl] | – | – | – | – | – | – | differences in yield over the untreated | Good WUE differences | increase in water productivity | significant difference in yield | +1% over Untr./60% irr. | 53.1
